# According to patent US7473790B2 (Pfizer Inc., priority 2003, dated 2009):
# Biological target: T1, HCV polymerase (Hepatitis C virus genotype 1b, UniProt P26663)
# T1 construct: 2.5 pmoles (0.15 μg) HCV polymerase protein in a final volume of 75 μL
# Experiment: HCV polymerase primer/template-directed transcription assay (32P-GTP incorporation, filter binding)
# Type: biochemical
# Conditions: @ 20 uM compound; given where IC50 was impractical to calculate; read-out: percent inhibition
# How it was run: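 IC50s come from triplicate cpm, refit with an enzyme-concentration (30 nM) correction when under 200 nM. Reactions ran 30 min at 30° C in Tris pH 7.2 with MgCl2, 1 μM GTP spiked with α-32P-GTP, biotin-dG12 primer and poly(rC)300 template, with 1% DMSO. Incorporated label was collected on DE filtermats and counted.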
# T1 sequence (P26663 2420-3010): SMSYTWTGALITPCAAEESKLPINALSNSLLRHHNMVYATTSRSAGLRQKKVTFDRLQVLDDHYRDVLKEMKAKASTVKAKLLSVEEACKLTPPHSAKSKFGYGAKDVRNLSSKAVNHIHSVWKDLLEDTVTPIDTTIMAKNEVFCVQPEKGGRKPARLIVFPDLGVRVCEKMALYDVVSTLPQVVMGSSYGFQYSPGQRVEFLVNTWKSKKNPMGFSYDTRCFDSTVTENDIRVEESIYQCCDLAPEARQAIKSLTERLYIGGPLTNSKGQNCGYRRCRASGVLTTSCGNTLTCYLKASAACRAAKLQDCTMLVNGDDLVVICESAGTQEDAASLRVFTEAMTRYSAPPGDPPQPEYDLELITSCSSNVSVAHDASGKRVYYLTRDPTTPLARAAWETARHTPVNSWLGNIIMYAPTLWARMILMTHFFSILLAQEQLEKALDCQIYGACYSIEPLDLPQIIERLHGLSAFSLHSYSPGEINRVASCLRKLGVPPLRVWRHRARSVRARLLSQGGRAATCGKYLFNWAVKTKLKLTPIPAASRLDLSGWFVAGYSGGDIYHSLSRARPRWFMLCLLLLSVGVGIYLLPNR
row,Compound,inhibition at 20 µM
1,"CC(C)Oc1ccc(CCC2(C3CCCC3)CC(O)=C(Cc3nc4ccccc4n3C)C(=O)O2)cc1Cl (centres unmarked) [B(27), 6-[2-(3-Chloro-4-isopropoxy-phenyl)-ethyl]-6-cyclopentyl-4-hydroxy-3-(1-methyl-1H-benzoimidazol-2-ylmethyl)-5,6-dihydro-pyran-2-one]",47%

# Same assay, conditions: recombinant HCV polymerase; 30 minutes at 30° C.; concentration giving 50% inhibition of polymerase-directed transcription; read-out: IC50
row,Compound,IC50
1,"Cc1cc(C)n2nc(CC3=C(O)CC(CCc4cccc(C(C)(C)C)c4)(C4CCCC4)OC3=O)nc2n1 (centres unmarked) [B(03), 6-[2-(3-tert-Butyl-phenyl)-ethyl]-6-cyclopentyl-3-(5,7-dimethyl-[1,2,4]triazolo[1,5-a]pyrimidin-2-ylmethyl)-4-hydroxy-5,6-dihydro-pyran-2-one]",5 nM
2,"Cc1cc(C)n2nc(CC3=C(O)CC(CCc4ccc(-c5c(C)noc5C)cc4)(C4CCCC4)OC3=O)nc2n1 (centres unmarked) [B(04), 6-Cyclopentyl-6-{2-[4-(3,5-dimethyl-isoxazol-4-yl)-phenyl]-ethyl}-3-(5,7-dimethyl-[1,2,4]triazolo[1,5-a]pyrimidin-2-ylmethyl)-4-hydroxy-5,6-dihydro-pyran-2-one]",24 nM
3,"COc1ccc(CCC2(C3CCCC3)CC(O)=C(Cc3ccc(-c4csnn4)cc3)C(=O)O2)cc1Cl (centres unmarked) [B(05), 6-[2-(3-Chloro-4-methoxy-phenyl)-ethyl]-6-cyclopentyl-4-hydroxy-3-(4-[1,2,3]thiadiazol-4-yl-benzyl)-5,6-dihydro-pyran-2-one]",130 nM
4,"COc1ccc(CCC2(C3CCCC3)CC(O)=C(Cc3ccc(-n4c(C)ccc4C)cc3)C(=O)O2)cc1Cl (centres unmarked) [B(06), 6-[2-(3-Chloro-4-methoxy-phenyl)-ethyl]-6-cyclopentyl-3-[4-(2,5-dimethyl-pyrrol-1-yl)-benzyl]-4-hydroxy-5,6-dihydro-pyran-2-one]",150 nM
5,"CCc1cc(CCC2(C3CCCC3)CC(O)=C(Cc3nc4nc(C)cc(C)n4n3)C(=O)O2)ccc1O (centres unmarked) [B(07), 6-Cyclopentyl-3-(5,7-dimethyl-[1,2,4]triazolo[1,5-a]pyrimidin-2-ylmethyl)-6-[2-(3-ethyl-4-hydroxy-phenyl)-ethyl]-4-hydroxy-5,6-dihydro-pyran-2-one]",1 nM
6,"Cc1cc(C)n2nc(CC3=C(O)CC(CCc4ccc(O)c(C(C)(C)C)c4)(C4CCCC4)OC3=O)nc2n1 (centres unmarked) [B(08), 6-[2-(3-tert-Butyl-4-hydroxy-phenyl)-ethyl]-6-cyclopentyl-3-(5,7-dimethyl-[1,2,4]triazolo[1,5-a]pyrimidin-2-ylmethyl)-4-hydroxy-5,6-dihydro-pyran-2-one]",13 nM
7,"COc1ccc(CCC2(C3CCCC3)CC(O)=C(Cc3nc4nc(C)cc(C)n4n3)C(=O)O2)cc1C (centres unmarked) [B(09), 6-Cyclopentyl-3-(5,7-dimethyl-[1,2,4]triazolo[1,5]pyrimidin-2-ylmethyl)-4-hydroxy-6-[2-(4-methoxy-3-methyl-phenyl)-ethyl]-5,6-dihydro-pyran-2-one]",54 nM
8,"CCOc1ccc(CCC2(C3CCCC3)CC(O)=C(Cc3nc4nc(C)cc(C)n4n3)C(=O)O2)cc1C (centres unmarked) [B(10), 6-Cyclopentyl-3-(5,7-dimethyl-[1,2,4]triazolo[1,5]pyrimidin-2-ylmethyl)-6-[2-(4-ethoxy-3-methyl-phenyl)-ethyl]-4-hydroxy-5,6-dihydro-pyran-2-one]",53 nM
9,"Cc1cc(C)n2nc(CC3=C(O)CC(CCc4ccc(OC(C)C)c(C)c4)(C4CCCC4)OC3=O)nc2n1 (centres unmarked) [B(11), 6-Cyclopentyl-3-(5,7-dimethyl-[1,2,4]triazolo[1,5]pyrimidin-2-ylmethyl)-4-hydroxy-6-[2-(4-isopropoxy-3-methyl-phenyl)-ethyl]-5,6-dihydro-pyran-2-one]",19 nM
10,"CCc1cccc(CCC2(C3CCCC3)CC(O)=C(Cc3nc4nc(C)cc(C)n4n3)C(=O)O2)c1 (centres unmarked) [B(12), 6-Cyclopentyl-3-(5,7-dimethyl-[1,2,4]triazolo[1,5]pyrimidin-2-ylmethyl)-6-[2-(3-ethyl-phenyl)-ethyl]-4-hydroxy-5,6-dihydro-pyran-2-one]",26 nM
11,"COc1ccc(CCC2(C3CCCC3)CC(O)=C(Cc3nc4nc(C)cc(C)n4n3)C(=O)O2)cc1Cl (centres unmarked) [B(13), 6-[2-(3-Chloro-4-methoxy-phenyl)-ethyl]-6-cyclopentyl-3-(5,7-dimethyl-[1,2,4]triazolo[1,5-a]pyrimidin-2-ylmethyl)-dihydro-pyran-2,4-dione]",20 nM
12,"CC(C)Oc1ccc(CCC2(C3CCCC3)CC(O)=C(Cc3nc4cc(Cl)ccc4n3C(C)C)C(=O)O2)cc1F (centres unmarked) [B(14), 3-(5-Chloro-1-isopropyl-1H-benzoimidazol-2-ylmethyl)-6-cyclopentyl-6-[2-(3-fluoro-4-isopropoxy-phenyl)-ethyl]-4-hydroxy-5,6-dihydro-pyran-2-one]",630 nM
13,"CC(C)Oc1ccc(CCC2(C3CCCC3)CC(O)=C(Cc3nc4ccccc4n3C)C(=O)O2)cc1F (centres unmarked) [B(16), 6-Cyclopentyl-6-[2-(3-fluoro-4-isopropoxy-phenyl)-ethyl]-4-hydroxy-3-(1-methyl-1H-benzoimidazol-2-ylmethyl)-5,6-dihydro-pyran-2-one]",900 nM
14,"COc1ccc(CC2=C(O)CC(CCc3ccc(OC)c(Cl)c3)(C3CCCC3)OC2=O)cc1 (centres unmarked) [B(17), 6-[2-(3-Chloro-4-methoxy-phenyl)-ethyl]-6-cyclopentyl-4-hydroxy-3-(4-methoxy-benzyl)-5,6-dihydro-pyran-2-one]",1100 nM
15,Cc1cc(C)n2nc(CC3=C(O)CC(CCc4ccc(OC(C)C)c(F)c4)(C4CCCC4)OC3=O)nc2n1 (centres unmarked) [B(18)],21 nM
16,"Cc1cc(C)n2nc(CC3=C(O)CC(CCc4ccc(F)c(Cl)c4)(C4CCCC4)OC3=O)nc2n1 (centres unmarked) [B(19), 6-[2-(3-Chloro-4-fluoro-phenyl)-ethyl]-6-cyclopentyl-3-(5,7-dimethyl-[1,2,4]triazolo[1,5]pyrimidin-2-ylmethyl)-4-hydroxy-5,6-dihydro-pyran-2-one]",60 nM
17,"CCOc1ccc(CCC2(C3CCCC3)CC(O)=C(Cc3nc4nc(C)cc(C)n4n3)C(=O)O2)cc1Cl (centres unmarked) [B(20), 6-[2-(3-Chloro-4-ethoxy-phenyl)-ethyl]-6-cyclopentyl-3-(5,7-dimethyl-[1,2,4]triazolo[1,5]pyrimidin-2-ylmethyl)-4-hydroxy-5,6-dihydro-pyran-2-one]",4 nM
18,"COc1ccc(CCC2(C3CCCC3)CC(O)=C(Cc3ccc(S(C)(=O)=O)cc3)C(=O)O2)cc1Cl (centres unmarked) [B(21), 6-[2-(3-Chloro-4-methoxy-phenyl)-ethyl]-6-cyclopentyl-4-hydroxy-3-(4-methanesulfonyl-benzyl)-5,6-dihydro-pyran-2-one]",400 nM
19,"COc1ccc(CCC2(C3CCCC3)CC(O)=C(Cc3ccc(C#N)cc3)C(=O)O2)cc1Cl (centres unmarked) [B(22), 4-{6-[2-(3-Chloro-4-methoxy-phenyl)-ethyl]-6-cyclopentyl-4-hydroxy-2-oxo-5,6-dihydro-2-pyran-3-ylmethyl}-benzonitrile]",1200 nM
20,"COc1ccc(CCC2(C3CCCC3)CC(O)=C(Cc3cccc(C#N)c3)C(=O)O2)cc1Cl (centres unmarked) [B(23), 3-{6-[2-(3-Chloro-4-methoxy-phenyl)-ethyl]-6-cyclopentyl-4-hydroxy-2-oxo-5,6-dihydro-2-pyran-3-ylmethyl}-benzonitrile]",870 nM
21,"COc1ccc(CCC2(C3CCCC3)CC(O)=C(Cc3ccc(-n4cccn4)cc3)C(=O)O2)cc1Cl (centres unmarked) [B(24), 6-[2-(3-Chloro-4-methoxy-phenyl)-ethyl]-6-cyclopentyl-4-hydroxy-3-(4-pyrazol-1-yl-benzyl)-5,6-dihydro-pyran-2-one]",140 nM
22,"COc1ccc(CCC2(C3CCCC3)CC(O)=C(Cc3ccc(-n4cncn4)cc3)C(=O)O2)cc1Cl (centres unmarked) [B(25), 6-[2-(3-Chloro-4-methoxy-phenyl)-ethyl]-6-cyclopentyl-4-hydroxy-3-(4-[1,2,4]triazol-1-yl-benzyl)-5,6-dihydro-pyran-2-one]",240 nM
23,"Cn1c(CC2=C(O)CC(CCc3ccc(OCC4CC4)c(Cl)c3)(C3CCCC3)OC2=O)nc2ccccc21 (centres unmarked) [B(26), 6-[2-(3-Chloro-4-cyclopropylmethoxy-phenyl)-ethyl]-6-cyclopentyl-4-hydroxy-3-(1-methyl-1H-benzoimidazol-2-ylmethyl)-5,6-dihydro-pyran-2-one]",2300 nM
24,"Cc1cc(C)n2nc(CC3=C(O)CC(CCc4ccc(OCC5CC5)c(Cl)c4)(C4CCCC4)OC3=O)nc2n1 (centres unmarked) [B(28), 6-[2-(3-Chloro-4-cyclopropylmethoxy-phenyl)-ethyl]-6-cyclopentyl-3-(5,7-dimethyl-[1,2,4]triazolo[1,5-a]pyrimidin-2-ylmethyl)-4-hydroxy-5,6-dihydro-pyran-2-one]",11 nM
25,"COc1ccc(CCC2(C3CCCC3)CC(O)=C(Cc3nn(C)cc3Cl)C(=O)O2)cc1Cl (centres unmarked) [B(29), 6-[2-(3-Chloro-4-methoxy-phenyl)-ethyl]-3-(4-chloro-1-methyl-1H-pyrazol-3-ylmethyl)-6-cyclopentyl-4-hydroxy-5,6-dihydro-pyran-2-one]",220 nM
26,"COc1ccc(CCC2(C3CCCC3)CC(O)=C(Cc3ncc[nH]3)C(=O)O2)cc1Cl (centres unmarked) [B(30), 6-[2-(3-Chloro-4-methoxy-phenyl)-ethyl]-6-cyclopentyl-4-hydroxy-3-(1H-imidazol-2-ylmethyl)-5,6-dihydro-pyran-2-one]",2000 nM
27,"Cc1cc(C)n2nc(CC3=C(O)CC(CCc4ccc(OC(C)C)c(Cl)c4)(C4CCCC4)OC3=O)nc2n1 (centres unmarked) [B(31), 6-[2-(3-Chloro-4-isopropoxy-phenyl)-ethyl]-6-cyclopentyl-3-(5,7-dimethyl-[1,2,4]triazolo[1,5-a]pyrimidin-2-ylmethyl)-4-hydroxy-5,6-dihydro-pyran-2-one]",3 nM
28,"COc1cc(OC)c(CCC2(C3CCCC3)CC(O)=C(Cc3nn(C)cc3Cl)C(=O)O2)cc1Cl (centres unmarked) [B(32), 6-[2-(5-Chloro-2,4-dimethoxy-phenyl)-ethyl]-3-(4-chloro-1-methyl-1H-pyrazol-3-ylmethyl)-6-cyclopentyl-4-hydroxy-5,6-dihydro-pyran-2-one]",70 nM
